Experimental data: ChEMBL document CHEMBL5029152, “Discovery of Highly Potent and Selective IRAK1 Degraders to Probe Scaffolding Functions of IRAK1 in ABC DLBCL” (J Med Chem, 2021)
The source made the active and inactive calls. No cut-off for these calls is given here.

Tests used:
[1] = target: T1, Interleukin-1 receptor-associated kinase 4 (Homo sapiens, UniProt Q9NWZ3); experiment: Inhibition of full length human N-terminal GST-fusion tagged IRAK4 expressed in baculovirus expression system using FAM-labelled peptide as substrate preincubated for 10 mins followed by substrate addition and further incubated for 1 hr in presence of ATP at Km concentration by caliper mobility shift assay
T1 sequence (Q9NWZ3 whole entry): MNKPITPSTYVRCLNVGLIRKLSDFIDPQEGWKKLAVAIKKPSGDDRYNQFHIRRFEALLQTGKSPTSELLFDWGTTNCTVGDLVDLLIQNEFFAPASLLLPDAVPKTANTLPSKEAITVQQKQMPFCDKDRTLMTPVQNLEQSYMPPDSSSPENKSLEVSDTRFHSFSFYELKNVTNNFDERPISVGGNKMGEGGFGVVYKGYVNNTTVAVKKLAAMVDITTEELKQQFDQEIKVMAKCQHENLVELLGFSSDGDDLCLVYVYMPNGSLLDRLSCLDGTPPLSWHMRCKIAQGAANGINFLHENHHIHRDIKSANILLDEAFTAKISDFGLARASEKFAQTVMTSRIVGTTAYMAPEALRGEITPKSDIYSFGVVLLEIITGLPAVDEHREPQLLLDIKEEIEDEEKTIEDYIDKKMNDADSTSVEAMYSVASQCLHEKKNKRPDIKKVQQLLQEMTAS

[2] = target: NmrA-like family domain-containing protein 1 (Homo sapiens) (UniProt Q9HBL8); experiment: Induction of NMRAL1 degradation in human Toledo cells assessed as decrease in protein abundance at 1 uM measured after 6 hrs by quantitative mass spectrometry; type: cell-based
NmrA-like family domain-containing protein 1 (Homo sapiens), sequence (Q9HBL8 whole entry, the tested form may be a part): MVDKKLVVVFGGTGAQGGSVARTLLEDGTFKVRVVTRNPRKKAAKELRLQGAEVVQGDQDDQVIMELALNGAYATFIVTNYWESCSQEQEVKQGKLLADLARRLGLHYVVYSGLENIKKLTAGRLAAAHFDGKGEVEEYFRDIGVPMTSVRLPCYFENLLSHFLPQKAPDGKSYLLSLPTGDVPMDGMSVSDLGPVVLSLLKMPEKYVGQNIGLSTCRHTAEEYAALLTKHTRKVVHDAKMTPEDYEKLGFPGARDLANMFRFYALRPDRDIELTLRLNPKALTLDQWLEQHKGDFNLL

[3] = target: T2, Mitogen-activated protein kinase kinase kinase 19 (Homo sapiens) (UniProt Q56UN5); experiment: Inhibition of wild-type human partial length YSK4 (T1019 to H1328 residues) expressed in mammalian expression system at 1 uM by Kinomescan method
T2 sequence (whole entry): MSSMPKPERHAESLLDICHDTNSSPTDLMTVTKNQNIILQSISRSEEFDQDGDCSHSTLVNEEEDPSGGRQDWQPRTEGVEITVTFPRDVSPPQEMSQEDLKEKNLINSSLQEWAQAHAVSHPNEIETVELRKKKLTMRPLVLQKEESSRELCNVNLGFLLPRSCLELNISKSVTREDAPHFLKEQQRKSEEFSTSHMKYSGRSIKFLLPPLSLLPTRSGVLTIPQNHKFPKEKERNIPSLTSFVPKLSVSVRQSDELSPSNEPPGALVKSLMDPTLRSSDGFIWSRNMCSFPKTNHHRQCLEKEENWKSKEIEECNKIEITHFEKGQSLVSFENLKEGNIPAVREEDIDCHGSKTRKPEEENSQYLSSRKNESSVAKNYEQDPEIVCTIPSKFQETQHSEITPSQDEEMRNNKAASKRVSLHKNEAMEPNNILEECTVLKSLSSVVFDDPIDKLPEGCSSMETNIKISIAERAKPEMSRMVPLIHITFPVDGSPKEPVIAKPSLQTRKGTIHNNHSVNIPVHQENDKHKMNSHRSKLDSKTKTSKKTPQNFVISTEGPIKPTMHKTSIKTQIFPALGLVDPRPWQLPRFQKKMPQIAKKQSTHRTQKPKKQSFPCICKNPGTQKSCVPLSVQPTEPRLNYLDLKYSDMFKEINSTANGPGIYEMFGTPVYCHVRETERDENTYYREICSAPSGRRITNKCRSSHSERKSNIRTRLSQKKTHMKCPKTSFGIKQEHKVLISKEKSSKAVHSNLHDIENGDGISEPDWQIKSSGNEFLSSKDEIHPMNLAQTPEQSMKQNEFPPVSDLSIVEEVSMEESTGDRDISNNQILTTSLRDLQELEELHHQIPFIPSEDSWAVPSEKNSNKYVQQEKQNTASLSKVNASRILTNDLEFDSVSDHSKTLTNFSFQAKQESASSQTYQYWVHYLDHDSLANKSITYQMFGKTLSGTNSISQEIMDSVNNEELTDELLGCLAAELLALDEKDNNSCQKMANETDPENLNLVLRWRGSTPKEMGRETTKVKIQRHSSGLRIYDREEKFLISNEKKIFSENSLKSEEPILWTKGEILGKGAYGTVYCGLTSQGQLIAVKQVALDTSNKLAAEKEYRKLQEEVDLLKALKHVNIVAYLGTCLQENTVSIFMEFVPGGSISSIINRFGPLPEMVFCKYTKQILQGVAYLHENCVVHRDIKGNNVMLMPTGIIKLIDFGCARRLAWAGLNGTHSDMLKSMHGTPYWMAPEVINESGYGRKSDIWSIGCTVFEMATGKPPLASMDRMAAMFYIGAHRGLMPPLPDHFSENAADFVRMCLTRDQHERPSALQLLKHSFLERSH

[4] = target: BMP-2-inducible protein kinase (Homo sapiens) (UniProt Q9NSY1); experiment: Inhibition of wild-type human partial length BIKE (S34 to N329 residues) expressed in bacterial expression system at 1 uM by Kinomescan method
BMP-2-inducible protein kinase (Homo sapiens), sequence (Q9NSY1 whole entry, looked up, the tested form may be a part): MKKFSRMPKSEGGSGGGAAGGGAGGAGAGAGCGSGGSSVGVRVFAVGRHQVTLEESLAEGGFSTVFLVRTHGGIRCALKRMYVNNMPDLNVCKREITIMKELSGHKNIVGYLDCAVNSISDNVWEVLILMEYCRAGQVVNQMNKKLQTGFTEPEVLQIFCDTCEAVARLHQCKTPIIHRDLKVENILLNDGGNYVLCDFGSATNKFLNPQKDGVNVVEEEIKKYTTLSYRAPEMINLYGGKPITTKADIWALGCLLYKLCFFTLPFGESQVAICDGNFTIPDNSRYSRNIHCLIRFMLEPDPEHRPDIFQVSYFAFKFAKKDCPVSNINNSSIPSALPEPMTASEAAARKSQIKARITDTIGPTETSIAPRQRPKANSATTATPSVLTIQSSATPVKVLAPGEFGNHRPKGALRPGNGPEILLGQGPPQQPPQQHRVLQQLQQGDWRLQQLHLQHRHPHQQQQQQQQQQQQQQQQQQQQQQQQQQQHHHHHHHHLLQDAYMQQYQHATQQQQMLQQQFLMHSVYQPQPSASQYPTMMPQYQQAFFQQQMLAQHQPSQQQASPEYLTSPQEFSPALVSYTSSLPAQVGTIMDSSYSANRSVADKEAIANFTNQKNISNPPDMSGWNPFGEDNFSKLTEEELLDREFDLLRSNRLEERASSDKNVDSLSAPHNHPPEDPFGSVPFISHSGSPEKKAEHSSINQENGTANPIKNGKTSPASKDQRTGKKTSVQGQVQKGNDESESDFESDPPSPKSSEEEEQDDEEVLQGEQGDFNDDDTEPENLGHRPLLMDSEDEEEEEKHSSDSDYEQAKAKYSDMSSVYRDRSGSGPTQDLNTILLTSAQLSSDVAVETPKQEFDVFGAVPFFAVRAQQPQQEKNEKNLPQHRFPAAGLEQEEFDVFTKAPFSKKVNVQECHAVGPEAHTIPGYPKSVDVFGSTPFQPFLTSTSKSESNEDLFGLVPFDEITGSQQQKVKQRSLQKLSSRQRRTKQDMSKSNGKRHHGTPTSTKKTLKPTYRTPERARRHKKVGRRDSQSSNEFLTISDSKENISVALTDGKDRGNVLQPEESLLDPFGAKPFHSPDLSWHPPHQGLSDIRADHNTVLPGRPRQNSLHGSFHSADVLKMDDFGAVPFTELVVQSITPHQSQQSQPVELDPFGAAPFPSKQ

[5] = target: von Hippel-Lindau disease tumor suppressor/Interleukin-1 receptor-associated kinase 1 (Homo sapiens, UniProt P51617+P40337); experiment: Protac activity at IRAK1/VHL E3 ligase in human OCILY10 assessed as induction of IRAK1 degradation measured after 24 hrs by Western blot analysis
von Hippel-Lindau disease tumor suppressor/Interleukin-1 receptor-associated kinase 1, sequence (P51617 whole entry, the tested form may be a part): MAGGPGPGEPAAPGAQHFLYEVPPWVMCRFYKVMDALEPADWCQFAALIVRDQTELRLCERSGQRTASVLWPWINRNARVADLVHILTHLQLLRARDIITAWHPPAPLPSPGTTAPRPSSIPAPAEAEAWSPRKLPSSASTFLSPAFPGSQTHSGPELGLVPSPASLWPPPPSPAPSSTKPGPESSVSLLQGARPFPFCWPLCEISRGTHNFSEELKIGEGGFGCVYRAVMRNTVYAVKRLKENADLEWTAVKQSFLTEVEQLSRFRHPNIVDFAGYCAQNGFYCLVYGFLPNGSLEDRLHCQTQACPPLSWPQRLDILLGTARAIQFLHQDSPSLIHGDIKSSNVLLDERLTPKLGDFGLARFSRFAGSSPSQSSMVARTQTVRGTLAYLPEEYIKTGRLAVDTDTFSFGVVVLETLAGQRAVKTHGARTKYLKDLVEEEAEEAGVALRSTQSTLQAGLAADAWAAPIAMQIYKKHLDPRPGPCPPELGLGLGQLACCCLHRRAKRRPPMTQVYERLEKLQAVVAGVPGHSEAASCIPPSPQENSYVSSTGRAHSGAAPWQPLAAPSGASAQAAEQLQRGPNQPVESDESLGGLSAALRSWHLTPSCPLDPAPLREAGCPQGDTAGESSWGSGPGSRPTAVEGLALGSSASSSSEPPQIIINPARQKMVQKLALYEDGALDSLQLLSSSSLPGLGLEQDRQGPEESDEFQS
von Hippel-Lindau disease tumor suppressor/Interleukin-1 receptor-associated kinase 1, sequence (P40337 whole entry, the tested form may be a part): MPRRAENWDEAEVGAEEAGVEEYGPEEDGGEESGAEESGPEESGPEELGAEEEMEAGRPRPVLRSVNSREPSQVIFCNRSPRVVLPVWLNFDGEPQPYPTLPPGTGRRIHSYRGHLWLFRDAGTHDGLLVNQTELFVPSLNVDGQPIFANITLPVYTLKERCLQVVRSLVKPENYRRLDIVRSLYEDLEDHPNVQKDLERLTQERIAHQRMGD

[6] = target: T3, Serine/threonine-protein kinase 17B (Homo sapiens) (UniProt O94768); experiment: Inhibition of wild-type human full length DRAK2 (M1 to C372 residues) expressed in bacterial expression system at 1 uM by Kinomescan method
T3 sequence (whole entry): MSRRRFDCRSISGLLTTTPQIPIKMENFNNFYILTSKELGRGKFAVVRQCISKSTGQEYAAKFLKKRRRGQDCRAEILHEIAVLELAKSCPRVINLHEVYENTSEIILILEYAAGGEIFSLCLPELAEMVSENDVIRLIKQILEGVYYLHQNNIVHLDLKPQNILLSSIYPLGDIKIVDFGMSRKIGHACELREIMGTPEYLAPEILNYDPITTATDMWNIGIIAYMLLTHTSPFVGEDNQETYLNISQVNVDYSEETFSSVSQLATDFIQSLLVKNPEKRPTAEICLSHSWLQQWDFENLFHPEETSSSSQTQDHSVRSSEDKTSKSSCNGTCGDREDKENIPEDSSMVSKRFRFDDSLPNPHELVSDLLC

[7] = target: T4, Interleukin-1 receptor-associated kinase 1 (Homo sapiens, UniProt P51617); experiment: Inhibition of IRAK1 in human HBL1 cells assessed as reduction in phosphorylated STAT3 level at up to 1 uM measured after 24 hrs by Western blot analysis; type: cell-based; conditions: dose microM <=1, time 24.0 hrs
T4 sequence (P51617 whole entry, looked up): as the sequence (P51617 whole entry, the tested form may be a part) above

[8] = target: T4, Interleukin-1 receptor-associated kinase 1; experiment: Inhibition of IRAK1 in human HBL1 cells assessed as reduction in total STAT3 level at up to 1 uM measured after 24 hrs by Western blot analysis; type: cell-based; conditions: dose microM <=1, time 24.0 hrs
[9] = Cytotoxicity against human HBL1 cells assessed as reduction in cell viability measured after 12 days by CellTiter-Glo assay; type: functional; conditions: time 12 day
[10] = target: von Hippel-Lindau disease tumor suppressor (Homo sapiens, UniProt P40337); experiment: Displacement of 5-FAM-labelled DEALA-HypYIPMDDDFQLRSF peptide from VHL (unknown origin) by fluorescence polarization assay
von Hippel-Lindau disease tumor suppressor, sequence (P40337 whole entry): as the sequence (P40337 whole entry, the tested form may be a part) above

IC50 [1]: 443 nM | Activity [2]: Active | inhibition [3]: Active | inhibition [4]: Active | DC50 [5]: 20 nM | inhibition [6]: Active | inhibition [7]: Active | inhibition [8]: inactive | IC50 [10]: 1070 nM
Compound: COc1cc(N2CCC(OCC(=O)N[C@H](C(=O)N3C[C@H](O)C[C@H]3C(=O)N[C@@H](C)c3ccc(-c4scnc4C)cc3)C(C)(C)C)CC2)ccc1NC(=O)c1cccc(-c2ccn[nH]2)n1
Activity [9]: 60 nM
